A short description of series [1]: The drug is tested on WLS-310 corresponding to human gut metagenome with ENA study accession number: PRJEB37062 and ENA sample accession number: ERS12561785 for biotransformation under anaerobic condition. The drug concentrations were measured over 9 timepoints collected between 0 and 24 hours of incubation by liquid-chromatography-coupled mass spectrometry (LC–MS). The settings on record: 2 µM.

Series [2] is described as follows: The drug is tested on WLS-006 corresponding to human gut metagenome with ENA study accession number: PRJEB37062 and ENA sample accession number: ERS12561741 for biotransformation under anaerobic condition. The drug concentrations were measured over 9 timepoints collected between 0 and 24 hours of incubation by liquid-chromatography-coupled mass spectrometry (LC–MS). The settings on record: 2 µM.

Series [3] can be described thus: The drug is tested on WLS-370 corresponding to human gut metagenome with ENA study accession number: PRJEB37062 and ENA sample accession number: ERS12561793 for biotransformation under anaerobic condition. The drug concentrations were measured over 9 timepoints collected between 0 and 24 hours of incubation by liquid-chromatography-coupled mass spectrometry (LC–MS). The settings on record: 2 µM.

Series [4] can be described thus: The drug is tested on Z-030 corresponding to mouse gut metagenome with ENA study accession number: PRJEB37062 and ENA sample accession number: ERS12561829 for biotransformation under anaerobic condition. The drug concentrations were measured over 9 timepoints collected between 0 and 24 hours of incubation by liquid-chromatography-coupled mass spectrometry (LC–MS). The following applies: 2 µM.

For series [5] the following is noted: human gut metagenome, 24 h, 2 µM.
Series [6] in a line: The drug is tested on Z-014 corresponding to rat gut metagenome with ENA study accession number: PRJEB37062 and ENA sample accession number: ERS12561814 for biotransformation under anaerobic condition. The drug concentrations were measured over 9 timepoints collected between 0 and 24 hours of incubation by liquid-chromatography-coupled mass spectrometry (LC–MS). The following applies: 2 µM.

The conditions of series [7]: human gut metagenome, 24 h, 2 µM. This is another data set of the same source.
A short description of series [8]: The drug is tested on Z-022 corresponding to mouse gut metagenome with ENA study accession number: PRJEB37062 and ENA sample accession number: ERS12561821 for biotransformation under anaerobic condition. The drug concentrations were measured over 9 timepoints collected between 0 and 24 hours of incubation by liquid-chromatography-coupled mass spectrometry (LC–MS). The following applies: 2 µM.

The conditions of series [9]: human gut metagenome, 24 h, 2 µM. The source holds these as a separate data set.

Molecules are shown by their SMILES.
Further: call rule not given here.

As to `C[C@]12C=CC(=O)C=C1CC[C@@H]1[C@@H]2C(=O)C[C@@]2(C)[C@H]1CC[C@]2(O)C(=O)CO` [PREDNISONE], the “Bacterial Biotransformation” value in series [1] is listed as “Compound metabolized”; in series [2], “Compound metabolized”; in series [3] it was “Compound metabolized”; in [4], “Compound NOT metabolized”; in [5] it was “Compound metabolized”; in [6], “Compound NOT metabolized”. Further, the “Bacterial Biotransformation” value in [7], in [8] and in [9] was “Compound metabolized” throughout.
`CN(CCOc1ccc(CC2SC(=O)NC2=O)cc1)c1ccccn1.O=C(O)/C=C\C(=O)O` (stereo unspecified) [ROSIGLITAZONE MALEATE]: the “Bacterial Biotransformation” value was “Compound metabolized” in [1]; “Compound metabolized” in series [2]; “Compound metabolized” in [3]; “Compound NOT metabolized” in series [4]; “Compound metabolized” in [5]; “Compound NOT metabolized” in [6]. Also, the “Bacterial Biotransformation” value in series [7], in [8] and in series [9] was “Compound NOT metabolized” each time.
Turning to `CC(C)c1nc(N(C)S(C)(=O)=O)nc(-c2ccc(F)cc2)c1/C=C/[C@@H](O)C[C@@H](O)CC(=O)[O-].CC(C)c1nc(N(C)S(C)(=O)=O)nc(-c2ccc(F)cc2)c1/C=C/[C@@H](O)C[C@@H](O)CC(=O)[O-].[Ca+2]` [ROSUVASTATIN CALCIUM], the “Bacterial Biotransformation” value is reported as “Compound metabolized” in series [1]; “Compound metabolized” in series [2]; “Compound metabolized” in series [3]; “Compound NOT metabolized” in series [4]; “Compound metabolized” in [5]; “Compound NOT metabolized” in series [6]. For the same molecule, the “Bacterial Biotransformation” value in series [7], in series [8] and in series [9] was “Compound NOT metabolized” each time.
In the case of `O=C(O)c1cc(/N=N/c2ccc(S(=O)(=O)Nc3ccccn3)cc2)ccc1O` [SULFASALAZINE], the “Bacterial Biotransformation” value in series [1], in series [2], in [3], in series [4], in series [5] and in [6] was “Compound metabolized” each time. Moreover, the “Bacterial Biotransformation” value in series [7], in [8] and in [9] was “Compound metabolized” throughout.
On to `C=CC[C@@H]1/C=C(\C)C[C@H](C)C[C@H](OC)[C@H]2O[C@@](O)(C(=O)C(=O)N3CCCC[C@H]3C(=O)O[C@H](/C(C)=C/[C@@H]3CC[C@@H](O)[C@H](OC)C3)[C@H](C)[C@@H](O)CC1=O)[C@H](C)C[C@@H]2OC.O` [TACROLIMUS], for which the “Bacterial Biotransformation” value in series [1] was “Compound metabolized”; in [2] it was “Compound metabolized”; in series [3] it was “Compound metabolized”; in series [4], “Compound NOT metabolized”; in series [5] it was “Compound metabolized”; in [6], “Compound NOT metabolized”. In addition, the “Bacterial Biotransformation” value in [7] is “Compound metabolized”; in series [8], “Compound NOT metabolized”; in [9] it was “Compound metabolized”.
Consider `COc1ccc(CN2CCNCC2)c(OC)c1OC.Cl.Cl` [TRIMETAZIDINE DIHYDROCHLORIDE], for which the “Bacterial Biotransformation” value in series [1], in series [2], in series [3], in series [4], in series [5] and in series [6] was “Compound NOT metabolized” each time. Also, the “Bacterial Biotransformation” value in series [7], in series [8] and in series [9] was “Compound NOT metabolized” in each case.
For `CN1[C@@H]2CC[C@H]1C[C@@H](OC(=O)c1c[nH]c3ccccc13)C2` [TROPISETRON], the “Bacterial Biotransformation” value in series [1], in [2], in series [3], in series [4], in [5] and in [6] was “Compound NOT metabolized” each time. Besides, the “Bacterial Biotransformation” value in series [7], in series [8] and in [9] was “Compound NOT metabolized” in each case.
Consider `N#Cc1ccc2[nH]cc(CCCCN3CCN(c4ccc5oc(C(N)=O)cc5c4)CC3)c2c1` [VILAZODONE], for which the “Bacterial Biotransformation” value is on record as “Compound metabolized” in series [1]; “Compound metabolized” in series [2]; “Compound metabolized” in series [3]; “Compound metabolized” in series [4]; “Compound metabolized” in series [5]; “Compound NOT metabolized” in series [6]. The “Bacterial Biotransformation” value in [7], in series [8] and in series [9] was “Compound metabolized” in each case.
Consider `C[C@@H](c1ncncc1F)[C@](O)(Cn1cncn1)c1ccc(F)cc1F` [VORICONAZOLE], for which the “Bacterial Biotransformation” value in series [1] was “Compound metabolized”; in series [2], “Compound metabolized”; in series [3], “Compound metabolized”; in [4], “Compound NOT metabolized”; in series [5], “Compound metabolized”; in series [6], “Compound NOT metabolized”. The “Bacterial Biotransformation” value in series [7], in [8] and in series [9] was “Compound metabolized” each time.
